Assay results from the METLIN SMRT retention time set (Domingo-Almenara et al. 2019).

Assay: gradient 5% acetonitrile 3 min, to 50% in 2 min, to 85% in 15 min, held 3 min, 100 µL/min
Details: column: Zorbax Extend-C18 2.1 x 50 mm; eluents: water / acetonitrile, 0.1% formic acid
Outline: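 A Zorbax Extend-C18 column (2.1 × 50 mm, 1.8 μm) run at 100 μL/min with water and acetonitrile, both containing 0.1% formic acid, separated mixtures of ~100 pure standards. The HPLC was coupled to a quadrupole time-of-flight mass spectrometer operated in positive and negative ionization mode, with dead and dwell volumes of 40 μL and 900 μL. Each retention time was taken from a computationally picked adduct peak that was then manually inspected.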

SMILES	RP-LC retention time
CCc1ccc(C2=C(C)C(N3CCC(C(=O)NC(C)C)CC3)=NS2(=O)=O)cc1	812 s
COc1ccc(N2CCN(c3cc(SCC(=O)Nc4ccc(OC)cc4OC)ncn3)CC2)cc1	962 s
COc1cccc2cc(C(=O)Nc3cc(C)nn3-c3ccccc3)oc12	832 s
COc1ccc(C(=O)N2CCC(c3cc(N)on3)CC2)cc1F	659 s
Cc1nc(CNS(=O)(=O)c2cc([N+](=O)[O-])ccc2C)cs1	716 s
COc1ccc(OCc2noc(CNC(=O)CSc3nnnn3C)n2)cc1	658 s
O=C(Cc1ccc(F)cc1)NC(c1ccccc1)c1nnc(N2CCCC2)o1 (stereo not drawn)	780 s
CCOc1nc2ccccc2nc1N1CCCC(C(=O)Nc2cccc3ccccc23)C1 (stereo not drawn)	1230 s
Cc1ccc(C)c(-c2csc3c(=O)n(CC(=O)OC(C)(C)C)cnc23)c1	1110 s
CCc1noc(NC(C)=O)c1-c1ccc(C)c(S(=O)(=O)N2CCCc3ccccc32)c1	953 s
CCN1CCN(CCNC(=O)c2c(N3CCCC3=O)c3cc(OC)ccc3n2C)CC1	592 s
CCOc1ccc(-c2nc(C#N)c(N3CCN(C(=O)c4ccccc4Cl)CC3)o2)cc1	986 s
CC(C)NC(=O)c1cccn(-c2ccc(NC(=O)C(C)(C)C)cc2)c1=O	749 s
CCCCN(C)C(=O)Cn1c(C2CC(=O)N(c3ccc(OC)cc3)C2)nc2ccccc21 (stereo not drawn)	712 s
CCN(Cc1ccccc1)C(=O)c1cn2c(n1)COCC2	640 s
CC(C)(C)C(=O)N1CCN(Cc2noc(-c3ccc(F)cc3)n2)CC1	712 s
Cc1ccc(N2CCN(C(=O)c3cn(-c4cc(N5CCCCC5)ncn4)cn3)CC2)cc1	994 s
COCCn1ncc(N2CCCC(CC(=O)O)C2)cc1=O (stereo not drawn)	613 s
CCOC(=O)c1noc2ncnc(N(C)c3cccc(Cl)c3)c12	965 s
Cc1noc(-c2ccc(-n3cnc(C(=O)NC4CCCCCC4)c3)nc2)n1	896 s
O=C(Cc1cccs1)Nc1cccc2ccc(-n3ccnc3)nc12	610 s
Cc1cccc(NC(=O)CN2C(=O)C(C(=O)N3CCCC3)Sc3ccccc32)c1C (stereo not drawn)	945 s

SMILES	RP-LC retention time
CCOc1ccc(-c2noc(CN3N=NC4C(=O)N(c5cccc(OC)c5)C(=O)C43)n2)cc1OC (stereo not drawn)	917 s
Cc1nc2ccn(Cc3ccco3)c(=O)c2cc1C(=O)NCCC(C)C	776 s
O=C(COc1ccc(Cl)cc1)N1C[C@H]2C[C@H](C1)[C@H]1CCCC(=O)N1C2	714 s
CCOc1ccc(-c2nc(C3CC(=O)N(c4ccc(C)cc4)C3)no2)cc1OCC (stereo not drawn)	1090 s
O=C(C1CCCN(c2ccncc2)C1)N1CCCCCC1 (stereo not drawn)	603 s
COc1ccc(OC)c(S(=O)(=O)Nc2ccc(Br)cc2C)c1	945 s
COc1cccc(Cn2c(C(=O)N3CCC(C(=O)NCC4CCCCC4)CC3)cc3ccsc32)c1	1090 s
O=C(NCC1CCCO1)C1CCN(c2cnn(Cc3ccccc3)c(=O)c2)CC1 (stereo not drawn)	667 s
COCCCNC(=O)C1CCN(c2nccnc2Sc2cccc(C)c2)CC1	886 s
COc1cc(NC(=O)CSc2nc3nc(C)cc(C)n3n2)cc(OC)c1	726 s
O=C(NC1CCN(c2nnc3ccc(Cl)cn23)CC1)c1ccc(C(F)(F)F)s1	837 s
Cn1c(N2CCCC(C(=O)NCCN3CCN(c4ccccc4)CC3)C2)cc(=O)n(C)c1=O (stereo not drawn)	589 s
CCn1nnnc1NCc1ccc2c(c1)n(C)c(=O)n2C	617 s
Cc1ccc(-c2cc(N3CCN(C(=O)c4ccccc4Br)CC3)ncn2)cc1	696 s
CCn1cc(S(=O)(=O)NCc2cccc(Cl)c2)c2cccnc21	862 s
Cc1ccc2c(c1)C(=O)NC1(CCN(C(=O)NCCc3ccccc3)CC1)N2C	755 s
CC1=C(c2ccccc2)S(=O)(=O)N=C1N1CCC(NC(=O)c2ccoc2)CC1	733 s
COCc1nnc(-c2cc(C)cc(C)c2)o1	857 s
COCCNC(=O)c1ncoc1-c1ccccc1C(=O)N1CCCC1	635 s
CC1=C(c2ccc(C)c(C)c2)S(=O)(=O)N=C1N1CCCN(C(=O)C2CCCO2)CC1 (stereo not drawn)	790 s
CC(C)(C)S(=O)(=O)c1ccc(N2CCN(Cc3ccccc3)CC2)nn1	566 s
CCN1CCN(C(=O)Nc2ccc(Br)cc2F)c2cccnc21	659 s

SMILES	RP-LC retention time
CN1CCN(CCCNC(=O)c2ccccc2NC(=O)C2=CSCCO2)CC1	878 s
COc1ccc(S(=O)(=O)N2CCCC(C(N)=O)C2)cc1Cl (stereo not drawn)	701 s
CCOC(=O)c1ccccc1NC(=O)NCCn1c(C(F)(F)F)nc2cccnc21	917 s
Cc1cc2nc(C)c(=O)n(CC(=O)NCCN(C)C)c2cc1C	583 s
CCCNC(=O)C1CCN(c2ccc(SCC(=O)Nc3ccccc3C)nn2)CC1	636 s
COc1ccc(N2CC(c3nc(-c4ccncc4)no3)CC2=O)cc1Cl (stereo not drawn)	752 s
CCOc1ccc(NC(=O)Cn2c(=O)cc(-c3nc(C(C)C)no3)c3ccccc32)cc1	1030 s
O=C(CN1CC=C(c2cnn(-c3ccc(F)cc3)c2)CC1)N1CCN(c2ccc(F)cc2)CC1	739 s
O=C1CC(c2nc(-c3ccc(Cl)cc3)no2)CN1c1ccc(F)cc1 (stereo not drawn)	1000 s
Cc1ccc(-c2nnc(-c3ccccc3)o2)cc1S(=O)(=O)N1CCCC1	1020 s
Cc1ccc(CNS(=O)(=O)c2cc3c4c(c2)CCC(=O)N4CCC3)cc1	868 s
Cc1ccc2c(c1)N(Cc1cccc(F)c1)N=C(C(=O)N1CCC(C)CC1)S2(=O)=O	1070 s
CCOc1cccc(-c2noc(-c3nnn4c3COC(c3ccc(Cl)cc3)C4)n2)c1 (stereo not drawn)	1320 s
O=C(Nc1cccc(Br)c1)N1CCCC1c1nc(-c2ccc(F)cc2F)no1 (stereo not drawn)	1060 s
C=CCNS(=O)(=O)c1c(C)[nH]c(=O)[nH]c1=O	582 s
CC(C)CC(=O)N1CCc2cc(CNS(=O)(=O)Cc3ccccc3)ccc21	610 s
COc1cc(NC(=O)N2CCCC2c2ccccc2C)cc(OC)c1OC (stereo not drawn)	865 s
Cc1ccc(CNC(=O)c2cn(-c3ccc(NC(=O)C4CC4)cn3)cn2)cc1C	818 s
Cc1nc([C@@H]2CN(C(=O)c3cccn3C)C[C@H]2C(N)=O)n[nH]1	576 s
CCN(CC)C(=O)Cn1c(C(F)(F)F)nc2cc3c(cc21)OCCO3	811 s
Cc1cc(-c2ccc(S(=O)(=O)N3CCC(C(=O)N4CCCC4)CC3)o2)n[nH]1	679 s
Cc1ccc(NC(=O)N2CCc3nc[nH]c3C2)cc1F	606 s

SMILES	RP-LC retention time
COc1ccc(NC(=O)Cn2cccc(-c3nc(-c4ccc(OC)c(OC)c4)no3)c2=O)cc1OC	722 s
Cc1nn(-c2ccccc2)c(C)c1S(=O)(=O)N1CCC(C(=O)NCc2ccccc2)CC1	886 s
Cc1ccc(NC(=O)c2nc(C(C)C)oc2C)cc1F	1140 s
O=C(O)c1cccc(Nc2c(-c3ccc(F)cc3)nc3cnccn23)c1	702 s
Cc1cc(C)n(-c2ccc(=O)n(CC(=O)N3CCN(c4ncccn4)CC3)n2)n1	623 s
CCCC(=O)NC1CCN(c2ccc(F)cc2)C1=O (stereo not drawn)	659 s
Cc1ccn2cc(-c3ccc(NC(=O)/C=C/c4ccccc4)cc3)nc2n1	673 s
O=C(Cn1cccn1)N1CCCC(c2nnc(-c3ccccc3F)s2)C1 (stereo not drawn)	690 s
O=C(NCCc1ccccc1)N1CCN(c2nc3cccnc3n(Cc3ccccc3)c2=O)CC1	1080 s
N#Cc1ccc(C(=O)NC(Cc2ccccc2)c2nnc(N3CCCC3)o2)cc1 (stereo not drawn)	778 s
COCCn1cc(C(=O)Nc2ccc(Cl)cc2)c2nn(-c3ccccc3)c(=O)c-2c1	1050 s
Cn1c(C(=O)N2CCN(c3ccccn3)CC2)cc2c(=O)n(C)c3ccccc3c21	562 s
CCn1c(C(=O)NCCCN2CCOCC2)c(N2CCCC2=O)c2cc(F)ccc21	624 s
O=C(COc1ccccc1[N+](=O)[O-])Nc1nc2c(s1)CCc1ccccc1-2	1030 s
Cc1ccc(NC(=O)C2CCCN2S(=O)(=O)c2cc3c(cc2C)NC(=O)CO3)cc1F (stereo not drawn)	808 s
Cc1cccc(N(C)C(=O)c2cccc(NC(=O)[C@H]3[C@@H]4C[C@@H]5[C@H]3C(=O)O[C@@H]5C4)c2)c1	782 s
COc1ccc(NC(=O)N2CCCC2c2nc(-c3ccc(F)cc3F)no2)cc1Cl (stereo not drawn)	982 s
O=C(c1cccs1)N1CCC(n2c(C3CCCC3)nc3cccnc32)C1 (stereo not drawn)	653 s
O=C(N1CCN(S(=O)(=O)c2cccnc2)CC1)N1C[C@H]2C[C@H](C1)[C@H]1CCCC(=O)N1C2	629 s
Cc1nnc2c(=O)n(CC(=O)NCc3ccccc3)c3cccnc3n12	654 s
CCc1cc(=O)n(CC(=O)NCc2ccccc2)c(N2CCOCC2)n1	647 s
CC(C)NC(=O)N(CC(=O)N1CCc2sccc2C1COc1cccc(F)c1)CC1CCCO1 (stereo not drawn)	950 s
